Test results published in the NIST ThermoML archive (doi:10.1016/j.jct.2012.08.010).

Experiment: refractive index (Na D-line) (dimensionless); φn = volume fraction of the nth substance listed
Details: 101 kPa, Liquid, Standard Abbe refractometry

C=C[Si]1(C)O[Si](C)(C=C)O[Si](C)(C=C)O[Si](C)(C=C)O1 (stereo not given) [2,4,6,8-tetramethyl-2,4,6,8-tetravinylcycloterasiloxane] + CCc1ccccc1
refractive index
Details | 288.15 K | 298.15 K | 308.15 K | 318.15 K | 328.15 K
φ1 = 0.1306 | 1.49051 | – | – | – | –
φ1 = 0.1307 | – | 1.48523 | 1.47983 | 1.47444 | 1.46899
φ1 = 0.2495 | 1.48332 | 1.47811 | – | – | –
φ1 = 0.2496 | – | – | 1.47276 | 1.46745 | 1.46201
φ1 = 0.3353 | 1.47811 | 1.47292 | – | – | –
φ1 = 0.3354 | – | – | 1.46765 | 1.46234 | 1.45699
φ1 = 0.4168 | 1.47313 | 1.46801 | 1.46276 | – | –
φ1 = 0.4169 | – | – | – | 1.45752 | 1.45223
φ1 = 0.4874 | 1.46879 | – | – | – | –
φ1 = 0.4875 | – | 1.4637 | 1.45851 | 1.45331 | 1.44807
φ1 = 0.5524 | 1.46478 | – | – | – | –
φ1 = 0.5525 | – | 1.45974 | 1.4546 | 1.44944 | 1.44422
φ1 = 0.5993 | 1.46188 | – | – | – | –
φ1 = 0.5994 | – | 1.45688 | 1.4518 | 1.4467 | 1.44159
φ1 = 0.6539 | 1.45851 | – | – | – | –
φ1 = 0.654 | – | 1.45353 | 1.44849 | 1.44344 | 1.43836
φ1 = 0.699 | 1.4557 | 1.45075 | – | – | –
φ1 = 0.6991 | – | – | 1.44574 | 1.44073 | 1.43564
φ1 = 0.7394 | 1.4532 | 1.44826 | – | – | –
φ1 = 0.7395 | – | – | 1.44331 | 1.43832 | 1.4333
φ1 = 0.7767 | 1.45085 | 1.44594 | 1.44103 | – | –
φ1 = 0.7768 | – | – | – | 1.43607 | 1.43112
φ1 = 0.809 | 1.44885 | 1.44397 | 1.43906 | – | –
φ1 = 0.8091 | – | – | – | 1.43412 | 1.4292
φ1 = 0.8409 | 1.44681 | 1.44197 | – | – | –
φ1 = 0.841 | – | – | 1.43711 | 1.43222 | 1.42729
φ1 = 0.8663 | 1.44522 | 1.44039 | 1.43554 | 1.43067 | 1.42578
φ1 = 0.8945 | 1.44344 | 1.43862 | – | – | –
φ1 = 0.8946 | – | – | 1.43382 | 1.42898 | 1.42413
φ1 = 0.9191 | 1.44188 | 1.43709 | 1.4323 | 1.42747 | 1.42266
φ1 = 0.9412 | 1.44049 | 1.4357 | 1.43092 | 1.42613 | 1.42133
φ1 = 0.9806 | 1.43796 | 1.43323 | 1.42848 | 1.42373 | 1.41899
φ1 = 1 | 1.43674 | 1.43202 | 1.4273 | 1.42257 | 1.41785
